Converted amounts (≈) assume the structure as drawn.
What was measured:
Format in all cases: functional
Candida tropicalis = test: Antifungal activity against Candida tropicalis CGMCC 2.3739 assessed as fungal growth inhibition by NCCLS protocol based method
Nakaseomyces glabratus = test: Antifungal activity against Candida glabrata clinical isolate assessed as fungal growth inhibition by NCCLS protocol based method
Pichia kudriavzevii = test: Antifungal activity against Candida krusei GIM2.1 assessed as fungal growth inhibition by NCCLS protocol based method
Candida albicans [1] = test: Antifungal activity against Candida albicans CPCC400616 assessed as fungal growth inhibition by NCCLS protocol based method
Aspergillus fumigatus = test: Antifungal activity against Aspergillus fumigatus CGMCC3.7795 assessed as fungal growth inhibition by NCCLS protocol based method
Candida albicans [2] = test: Antifungal activity against Candida albicans ATCC SC5314 assessed as fungal growth inhibition by NCCLS protocol based method
Cryptococcus neoformans = test: Antifungal activity against Cryptococcus neoformans CGMCC 2.3161 assessed as fungal growth inhibition by NCCLS protocol based method
Candida parapsilosis = test: Antifungal activity against Candida parapsilosis GIM2.190 assessed as fungal growth inhibition by NCCLS protocol based method; conditions: Lodderomyces parapsilosis
Candida albicans [3] = test: Antifungal activity against FLC-resistant Candida albicans 103 assessed as fungal growth inhibition by NCCLS protocol based method
Candida albicans [4] = test: Antifungal activity against FLC-resistant Candida albicans 632 assessed as fungal growth inhibition by NCCLS protocol based method
Candida albicans [5] = test: Antifungal activity against FLC-resistant Candida albicans 311 assessed as fungal growth inhibition by NCCLS protocol based method
Candida albicans [6] = test: Antifungal activity against FLC-resistant Candida albicans CaR assessed as fungal growth inhibition by NCCLS protocol based method
Candida albicans [7] = test: Antifungal activity against FLC-resistant Candida albicans 901 assessed as fungal growth inhibition by NCCLS protocol based method
Candida albicans [8] = test: Antifungal activity against FLC-resistant Candida albicans 100 assessed as fungal growth inhibition by NCCLS protocol based method
Candida albicans [9] = test: Antifungal activity against FLC-resistant Candida albicans 904 assessed as fungal growth inhibition by NCCLS protocol based method

Row | Compound | MIC (Candida tropicalis) [µg/mL] | MIC (Nakaseomyces glabratus) [µg/mL] | MIC (Pichia kudriavzevii) [µg/mL] | MIC (Candida albicans [1]) [µg/mL] | MIC (Aspergillus fumigatus) [µg/mL] | MIC (Candida albicans [2]) [µg/mL] | MIC (Cryptococcus neoformans) [µg/mL] | MIC (Candida parapsilosis) [µg/mL] | MIC (Candida albicans [3]) [µg/mL] | MIC (Candida albicans [4]) [µg/mL] | MIC (Candida albicans [5]) [µg/mL] | MIC (Candida albicans [6]) [µg/mL] | MIC (Candida albicans [7]) [µg/mL] | MIC (Candida albicans [8]) [µg/mL] | MIC (Candida albicans [9]) [µg/mL]
1 | Cc1cccc(-c2ccc(C3=NC(Cn4ccnc4)(c4ccc(F)cc4)CO3)s2)c1 (configuration not stated) | 4 (≈ 9.58 µM) | > 64 | > 64 | 0.25 (≈ 0.599 µM) | 32 (≈ 76.6 µM) | 0.5 (≈ 1.2 µM) | 16 (≈ 38.3 µM) | 16 (≈ 38.3 µM) |  |  |  |  |  |  | 
2 | COc1cccc(-c2ccc(C3=NC(Cn4ccnc4)(c4ccc(F)cc4)CO3)s2)c1 (configuration not stated) | > 64 | > 64 | > 64 | > 64 | > 64 | > 64 | > 64 | > 64 |  |  |  |  |  |  | 
3 | CCOc1ccc(-c2ccc(C3=NC(Cn4ccnc4)(c4ccc(F)cc4)CO3)s2)cc1 (configuration not stated) | 1 (≈ 2.23 µM) | 32 (≈ 71.5 µM) | > 64 | 2 (≈ 4.47 µM) | 8 (≈ 17.9 µM) | 0.5 (≈ 1.12 µM) | > 64 | > 64 |  |  |  |  |  |  | 
4 | Cc1cccc(C2(Cn3ccnc3)COC(c3ccc(-c4ccccc4)s3)=N2)c1 (configuration not stated) | 4 (≈ 10 µM) | > 64 | > 64 | 2 (≈ 5.01 µM) | > 64 | 0.125 (≈ 0.313 µM) | 0.5 (≈ 1.25 µM) | > 64 | 4 (≈ 10 µM) | 4 (≈ 10 µM) | 4 (≈ 10 µM) | 8 (≈ 20 µM) | 8 (≈ 20 µM) | 0.5 (≈ 1.25 µM) | 4 (≈ 10 µM)
5 | Fc1ccc(-c2ccc(C3=NC(Cn4ccnc4)(c4ccc(F)cc4)CO3)s2)cc1 (configuration not stated) | 0.5 (≈ 1.19 µM) | > 64 | 16 (≈ 38 µM) | 1 (≈ 2.37 µM) | 8 (≈ 19 µM) | 2 (≈ 4.75 µM) | 8 (≈ 19 µM) | > 64 |  |  |  |  |  |  | 
6 | Fc1ccccc1C1(Cn2ccnc2)COC(c2ccc(-c3ccccc3)s2)=N1 (configuration not stated) | 0.125 (≈ 0.31 µM) | 0.25 (≈ 0.62 µM) | 1 (≈ 2.48 µM) | 0.125 (≈ 0.31 µM) | 8 (≈ 19.8 µM) | 0.5 (≈ 1.24 µM) | 0.5 (≈ 1.24 µM) | 0.25 (≈ 0.62 µM) | 0.25 (≈ 0.62 µM) | 1 (≈ 2.48 µM) | 0.25 (≈ 0.62 µM) | 0.125 (≈ 0.31 µM) | 1 (≈ 2.48 µM) | 0.125 (≈ 0.31 µM) | 1 (≈ 2.48 µM)
7 | CCc1ccc(-c2ccc(C3=NC(Cn4ccnc4)(c4ccc(F)cc4)CO3)s2)cc1 (configuration not stated) | > 64 | 64 (≈ 148 µM) | > 64 | 4 (≈ 9.27 µM) | 4 (≈ 9.27 µM) | 4 (≈ 9.27 µM) | > 64 | 16 (≈ 37.1 µM) |  |  |  |  |  |  | 
8 | Clc1cccc(C2(Cn3ccnc3)COC(c3ccc(-c4ccccc4)s3)=N2)c1 (configuration not stated) | > 64 | > 64 | > 64 | > 64 | > 64 | > 64 | 2 (≈ 4.76 µM) | 4 (≈ 9.53 µM) |  |  |  |  |  |  | 
9 | Cc1ccc(C2(Cn3ccnc3)COC(c3ccc(-c4ccccc4)s3)=N2)cc1 (configuration not stated) | 8 (≈ 20 µM) | > 64 | > 64 | 0.125 (≈ 0.313 µM) | 16 (≈ 40 µM) | 0.125 (≈ 0.313 µM) | 0.25 (≈ 0.626 µM) | 1 (≈ 2.5 µM) | 4 (≈ 10 µM) | 16 (≈ 40 µM) | 8 (≈ 20 µM) | 2 (≈ 5.01 µM) | 2 (≈ 5.01 µM) | 0.5 (≈ 1.25 µM) | 4 (≈ 10 µM)
10 | Fc1ccc(C2(Cn3ccnc3)COC(c3ccc(-c4ccc(Cl)cc4)s3)=N2)cc1 (configuration not stated) | 4 (≈ 9.13 µM) | > 64 | 8 (≈ 18.3 µM) | 2 (≈ 4.57 µM) | 8 (≈ 18.3 µM) | 8 (≈ 18.3 µM) | > 64 | > 64 |  |  |  |  |  |  | 
11 | Clc1ccc(C2(Cn3ccnc3)COC(c3ccc(-c4ccccc4)s3)=N2)cc1 (configuration not stated) | 0.125 (≈ 0.298 µM) | 16 (≈ 38.1 µM) | 16 (≈ 38.1 µM) | 0.25 (≈ 0.595 µM) | 8 (≈ 19.1 µM) | 0.25 (≈ 0.595 µM) | 0.5 (≈ 1.19 µM) | 2 (≈ 4.76 µM) | 4 (≈ 9.53 µM) | 1 (≈ 2.38 µM) | 4 (≈ 9.53 µM) | 1 (≈ 2.38 µM) | 0.5 (≈ 1.19 µM) | 4 (≈ 9.53 µM) | 2 (≈ 4.76 µM)
12 | FC(F)(F)c1ccc(C2(Cn3ccnc3)COC(c3ccc(-c4ccccc4)s3)=N2)cc1 (configuration not stated) | > 64 | > 64 | > 64 | 0.5 (≈ 1.1 µM) | > 64 | 0.125 (≈ 0.276 µM) | > 64 | > 64 |  |  |  |  |  |  | 
13 | COc1ccc(-c2ccc(C3=NC(Cn4ccnc4)(c4ccc(F)cc4)CO3)s2)cc1 (configuration not stated) | > 64 | > 64 | > 64 | > 64 | > 64 | > 64 | > 64 | > 64 |  |  |  |  |  |  | 
14 | N#Cc1cccc(-c2ccc(C3=NC(Cn4ccnc4)(c4ccc(F)cc4)CO3)s2)c1 (configuration not stated) | 1 (≈ 2.33 µM) | > 64 | > 64 | 0.5 (≈ 1.17 µM) | 16 (≈ 37.3 µM) | 0.5 (≈ 1.17 µM) | 2 (≈ 4.67 µM) | > 64 |  |  |  |  |  |  | 
15 | Fc1ccc(C2(Cn3ccnc3)COC(c3ccc(-c4ccc(OCC(F)(F)F)cc4)s3)=N2)cc1 (configuration not stated) | > 64 | > 64 | > 64 | > 64 | > 64 | > 64 | > 64 | > 64 |  |  |  |  |  |  | 
16 | COc1cccc(C2(Cn3ccnc3)COC(c3ccc(-c4ccccc4)s3)=N2)c1 (configuration not stated) | 1 (≈ 2.41 µM) | > 64 | > 64 | 1 (≈ 2.41 µM) | > 64 | 0.125 (≈ 0.301 µM) | > 64 | > 64 |  |  |  |  |  |  | 
17 | CCc1ccccc1-c1ccc(C2=NC(Cn3ccnc3)(c3ccc(F)cc3)CO2)s1 (configuration not stated) | > 64 | > 64 | > 64 | > 64 | > 64 | > 64 | > 64 | > 64 |  |  |  |  |  |  | 
18 | CC(C)c1ccccc1-c1ccc(C2=NC(Cn3ccnc3)(c3ccc(F)cc3)CO2)s1 (configuration not stated) | > 64 | > 64 | > 64 | > 64 | > 64 | > 64 | > 64 | > 64 |  |  |  |  |  |  | 
19 | Fc1ccc(C2(Cn3ccnc3)COC(c3ccc(-c4cccc(OC(F)(F)F)c4)s3)=N2)cc1 (configuration not stated) | > 64 | > 64 | > 64 | > 64 | > 64 | > 64 | > 64 | > 64 |  |  |  |  |  |  | 
20 | Fc1ccc(C2(Cn3ccnc3)COC(c3ccc(-c4ccc(C(F)(F)F)cc4)s3)=N2)cc1 (configuration not stated) | > 64 | > 64 | > 64 | > 64 | > 64 | > 64 | > 64 | > 64 |  |  |  |  |  |  | 
21 | N#Cc1ccc(-c2ccc(C3=NC(Cn4ccnc4)(c4ccc(F)cc4)CO3)s2)cc1 (configuration not stated) | 16 (≈ 37.3 µM) | > 64 | > 64 | 1 (≈ 2.33 µM) | 16 (≈ 37.3 µM) | 0.125 (≈ 0.292 µM) | > 64 | > 64 |  |  |  |  |  |  | 
22 | Fc1cccc(C2(Cn3ccnc3)COC(c3ccc(-c4ccccc4)s3)=N2)c1 (configuration not stated) | 8 (≈ 19.8 µM) | > 64 | > 64 | > 64 | > 64 | > 64 | > 64 | > 64 |  |  |  |  |  |  | 
23 | Fc1ccc(C2(Cn3ccnc3)COC(c3ccc(-c4ccccc4Cl)s3)=N2)cc1 (configuration not stated) | > 64 | > 64 | > 64 | 0.25 (≈ 0.571 µM) | 16 (≈ 36.5 µM) | 0.5 (≈ 1.14 µM) | > 64 | > 64 |  |  |  |  |  |  | 

— ChEMBL document CHEMBL5131399, “Broadening antifungal spectrum and improving metabolic stablity based on a scaffold strategy: Design, synthesis, and evaluation of novel 4-phenyl-4,5-dihydrooxazole derivatives as potent fungistatic and fungicidal reagents” (Eur J Med Chem, 2022)
